Measured values published in patent US20070197509A1, “Compositions and methods for modulating gated ion channels” (PainCeptor Pharma Corporation, priority 2005, published 2007).
Entries after “also recorded” stand apart in the source; their conditions may differ.

Target: T1, hASIC3 (Homo sapiens, UniProt Q9UHC3)
T1 sequence (Q9UHC3 1-531): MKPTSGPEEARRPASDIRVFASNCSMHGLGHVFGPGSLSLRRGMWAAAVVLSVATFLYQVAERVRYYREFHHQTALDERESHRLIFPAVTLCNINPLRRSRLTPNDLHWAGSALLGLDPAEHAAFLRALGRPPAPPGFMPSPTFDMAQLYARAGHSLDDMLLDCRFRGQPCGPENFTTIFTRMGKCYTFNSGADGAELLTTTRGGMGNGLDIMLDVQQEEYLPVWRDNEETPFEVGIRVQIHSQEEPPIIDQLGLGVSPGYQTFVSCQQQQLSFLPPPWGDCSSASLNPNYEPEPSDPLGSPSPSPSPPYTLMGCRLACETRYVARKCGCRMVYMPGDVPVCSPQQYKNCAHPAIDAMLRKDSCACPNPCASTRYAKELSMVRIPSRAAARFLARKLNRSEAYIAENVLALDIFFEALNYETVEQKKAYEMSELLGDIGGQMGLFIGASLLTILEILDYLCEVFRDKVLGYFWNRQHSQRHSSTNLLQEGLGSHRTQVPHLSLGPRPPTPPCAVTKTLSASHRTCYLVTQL
Test: Whole-cell patch clamp of acid-evoked currents in CHO cells transfected with hASIC3
Format: cell-based
Set-up: expressed in transfected cells
Method: All experiments are performed at room temperature (20-25° C.) in voltage clamp using conventional whole cell patch clamp methods (Neher, E., et al. (1978) Pfluegers Arch 375:219-228).
Coverslips with the cells are transferred to a 15 μl experimental chamber mounted on the stage of an inverted microscope (IMT-2, Olympus) supplied with Nomarski optics. Cells are continuously superfused with extracellular saline at a rate of 2.5 ml/min. After giga-seal formation, the whole cell configuration is attained by suction. The cells are held at a holding voltage of −60 mV and at the start of each experiment the current is continuously measured for 45 s to ensure a stable baseline. […] Current amplitudes are measured at the peak of the responses, and effect of the compounds is calculated as the amplitude at compound equilibrium divided by the amplitude of the current evoked by the pulse just before the compound was included. […]
FIG. 3 compares the selectivity of Compound R for human ASIC1a versus human ASIC3, both stably transfected in CHO cells. […] FIG. 3C compares the dose-response relationship of Compound R on hASIC1a and hASIC3 [determined by measuring the area under the curve of the response (total charge transfer) and normalized to the control response].

For `Cc1cc(OC2CCN(Cc3ccccc3)CC2)c2ccccc2n1` [Compound R, 4-(1-benzyl-piperidin-4-yloxy)-2-methyl-quinoline], the “effect on acid evoked hASIC3 current amplitude (FIG. 3B)” value (30 μM, CHO cells) was “failed to reduce the amplitude of the current; also recorded: failed to inhibit” and the “Biological Data (IC50 uM) h3 (PC)” value (patch clamp (PC), Table A) was “inactive”.
